According to patent publication US20230131966A1, “FUNGICIDAL AMIDES” (FMC Corporation, priority 2020, published 2023):

Columns and labels:
Type in all cases: in vivo
Phakopsora pachyrhizi = assay: Test A: Asian soybean rust control on soybean seedlings; settings: 250 ppm; soybean seedlings; 100 = 100% disease control, 0 = no control
[1] = test system: Puccinia recondita f. sp. tritici; assay: Test B: wheat leaf rust control on wheat seedlings; settings: 250 ppm; wheat seedlings; 100 = 100% disease control, 0 = no control
Zymoseptoria tritici = assay: Test C: wheat leaf blotch control on wheat seedlings; settings: 250 ppm; wheat seedlings; 100 = 100% disease control, 0 = no control
Plasmopara viticola = assay: Test D: grape downy mildew control on grape seedlings; settings: 250 ppm, 100 = 100% disease control, 0 = no control
Botrytis cinerea = assay: Test E: tomato Botrytis control on tomato seedlings; settings: 250 ppm, 100 = 100% disease control, 0 = no control
Phytophthora infestans = assay: whole plant or invertebrate; settings: 250 ppm; tomato seedlings; 100 = 100% disease control, 0 = no control
[2] = test system: Erysiphe graminis f. sp. tritici; assay: Test G: wheat powdery mildew control on wheat seedlings; settings: 250 ppm, 100 = 100% disease control, 0 = no control

SMILES | Test A disease control rating (Phakopsora pachyrhizi) | Test B disease control rating [1] | Test C disease control rating (Zymoseptoria tritici) | Test D disease control rating (Plasmopara viticola) | Test E disease control rating (Botrytis cinerea) | Test F disease control rating (Phytophthora infestans) | Test G disease control rating [2]
CCC(OC(=O)C(C)NC(=O)c1nccc(OC)c1O)c1ccc(C2CCCCC2)cc1 (mixture of isomers) [Compound 72] | 100% | 92% | 27% | 62% | 0% | 0% | 35%
CCC(OC(=O)[C@H](C)NC(=O)c1nccc(OC)c1OC(C)=O)c1ccc(C2CCCCC2)cc1 (single isomer, unassigned) [Compound 130] | 96% | 74% | 12% | 9% | 0% | 0% | 0%
C#Cc1ccc(C(C)OC(=O)C(C)NC(=O)c2nccc(OC)c2O)cc1 (mixture of isomers) [Compound 78] | 100% | 100% | 82% | 85% | 0% | 0% | 0%
COc1ccnc(C(=O)N[C@@H](C)C(=O)OC(C)c2cccc(OC3CCC(C)(C)CC3)c2)c1O (some centres unmarked) [Compound 138] | 95% | 74% | 63% | 18% | 0% | 0% | 0%
COc1ccnc(C(=O)NC(C)C(=O)OC(C#N)c2ccccc2)c1O (mixture of isomers) [Compound 159] | 0% | 0% | 0% | 11% | 0% | 0% | 0%
COc1ccnc(C(=O)NC(C(=O)OC(C)c2ccc(C3CCCCC3)cc2)C(C)C)c1O (mixture of isomers) [Compound 70] | 100% | 100% | 97% | 63% | 0% | 24% | 13%
CCC(OC(=O)[C@H](C)NC(=O)c1nccc(OC)c1O)C1CCCCC1 (single isomer, unassigned) [Compound 182] | 100% | 0% | 45% | 15% | 0% | 0% | 0%
COc1ccnc(C(=O)N[C@@H](C)C(=O)OC(C2CCCCC2)C2CCCCC2)c1OC(C)=O [Compound 46] | 100% | 68% | 68% | 22% | 0% | 0% | 91%
